Source: PubChem BioAssay AID1963868 (Molecular Pharmacology Branch, DTP, NCI, 2024)

Test system: KRAS PDC tumor spheroids (HUVEC+MSC), viability
Experiment: Anticancer human tumor 254851-301-R-J1-PDC patient-derived colon carcinoma cell line growth inhibition [KRAS2]
Details: for IC50: curve of first compound; for viability, T/C: stronger effect = lower value
Summary of the method: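 KRAS-mutant tumor cells were grown as spheroids with HUVEC endothelial cells and human MSCs as stroma. Targeted agents were tested alone and with KRAS pathway inhibitors. Doses started at or near clinical Cmax, or 10 microM, descending half-log.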

[1] = second compound 0.0316 µM, first compound 0.0316 µM
[2] = second compound 0.0316 µM, first compound 0.1 µM
[3] = second compound 0.0316 µM, first compound 0.316 µM
[4] = second compound 0.0316 µM, first compound 1 µM
[5] = second compound 0.0316 µM, first compound 3.16 µM
[6] = second compound 0.1 µM, first compound 0.0316 µM
[7] = second compound 0.1 µM, first compound 0.1 µM
[8] = second compound 0.1 µM, first compound 0.316 µM
[9] = second compound 0.1 µM, first compound 1 µM
[10] = second compound 0.1 µM, first compound 3.16 µM
[11] = second compound 0.316 µM, first compound 0.0316 µM
[12] = second compound 0.316 µM, first compound 0.1 µM
[13] = second compound 0.316 µM, first compound 0.316 µM
[14] = second compound 0.316 µM, first compound 1 µM
[15] = second compound 0.316 µM, first compound 3.16 µM
[16] = second compound 1 µM, first compound 0.0316 µM
[17] = second compound 1 µM, first compound 0.1 µM
[18] = second compound 1 µM, first compound 0.316 µM
[19] = second compound 1 µM, first compound 1 µM
[20] = second compound 1 µM, first compound 3.16 µM
[21] = second compound 3.16 µM, first compound 0.0316 µM
[22] = second compound 3.16 µM, first compound 0.1 µM
[23] = second compound 3.16 µM, first compound 0.316 µM
[24] = second compound 3.16 µM, first compound 1 µM
[25] = second compound 3.16 µM, first compound 3.16 µM
[26] = second compound 0.0316 µM, first compound 10 µM
[27] = second compound 0.1 µM, first compound 10 µM
[28] = second compound 0.316 µM, first compound 10 µM
[29] = second compound 1 µM, first compound 10 µM
[30] = second compound 3.16 µM, first compound 10 µM
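Also: spheroids exposed to compounds for seven days before readout.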
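For viability, T/C in this document: 100% = DMSO vehicle control luminescence of the spheroids.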

Row | SMILES | IC50 (second compound 0.0316 µM) | IC50 (second compound 0.1 µM) | IC50 (second compound 0.316 µM) | IC50 (second compound 1 µM) | IC50 (second compound 3.16 µM) | viability, T/C [1] | viability, T/C [2] | viability, T/C [3] | viability, T/C [4] | viability, T/C [5] | viability, T/C [6] | viability, T/C [7] | viability, T/C [8] | viability, T/C [9] | viability, T/C [10] | viability, T/C [11] | viability, T/C [12] | viability, T/C [13] | viability, T/C [14] | viability, T/C [15] | other results
1 | CC1COCCN1c1cc(-c2ccnn2C)c2ccnc(-c3ccn[nH]3)c2n1 (stereo not given) + C=CC(=O)N1CCN(c2nc(OCC3CCCN3C)nc3c2CCN(c2cccc4cccc(C)c24)C3)CC1CC#N | 207 nM | 300 nM | 187 nM | 82.6 nM | 23.8 nM | 88.8% | 62.7% | 40.4% | 32.7% | 20.4% | 95.3% | 64.8% | 50.8% | 34% | 21.4% | 97.1% | 58.8% | 41.9% | 32.3% | 22.5% | viability, T/C (second compound 0.0316 µM, first compound 0.01 µM): 122%; viability, T/C (second compound 0.1 µM, first compound 0.01 µM): 101%; viability, T/C (second compound 0.316 µM, first compound 0.01 µM): 105%; viability, T/C (second compound 1 µM, first compound 0.01 µM): 59.4%; viability, T/C [16]: 53%; viability, T/C [17]: 48.8%; viability, T/C [18]: 26.3%; viability, T/C [19]: 26.5%; viability, T/C [20]: 39.7%; viability, T/C (second compound 3.16 µM, first compound 0.01 µM): 57.6%; viability, T/C [21]: 47.1%; viability, T/C [22]: 32.8%; viability, T/C [23]: 23.3%; viability, T/C [24]: 18.8%; viability, T/C [25]: 23.8%
2 | CC1OCC2(CCN(c3cnc(Sc4ccnc(N)c4Cl)c(N)n3)CC2)C1N (stereo not given) + C=CC(=O)N1CCN(c2nc(OCC3CCCN3C)nc3c2CCN(c2cccc4cccc(C)c24)C3)CC1CC#N | > 10000 nM | > 10000 nM | > 10000 nM | > 10000 nM | > 10000 nM | 101% | 99.7% | 102% | 85.4% | 77.2% | 115% | 107% | 89.3% | 85.3% | 77.1% | 89.8% | 95.6% | 93.4% | 84.7% | 83.4% | viability, T/C [26]: 75.3%; viability, T/C [27]: 83%; viability, T/C [28]: 72.8%; viability, T/C [16]: 59.1%; viability, T/C [17]: 68.1%; viability, T/C [18]: 65.3%; viability, T/C [19]: 69%; viability, T/C [20]: 66.2%; viability, T/C [29]: 64.8%; viability, T/C [21]: 60.1%; viability, T/C [22]: 58.7%; viability, T/C [23]: 59.4%; viability, T/C [24]: 68.5%; viability, T/C [25]: 60.6%; viability, T/C [30]: 58.9%
3 | Cn1nccc1Nc1nccc(-c2cc3c(s2)C(C)(C)N(CCN2CCOCC2)C3=O)n1 + C=CC(=O)N1CCN(c2nc(OCC3CCCN3C)nc3c2CCN(c2cccc4cccc(C)c24)C3)CC1CC#N | 2320 nM | 3140 nM | 2540 nM | 1660 nM | 1300 nM | 99.1% | 112% | 89.8% | 82% | 38.4% | 89.9% | 89.9% | 95.3% | 94.1% | 49.8% | 112% | 92.3% | 91.2% | 75.9% | 43% | viability, T/C [26]: 4.17%; viability, T/C [27]: 3.82%; viability, T/C [28]: 3.62%; viability, T/C [16]: 71.3%; viability, T/C [17]: 74.5%; viability, T/C [18]: 68.6%; viability, T/C [19]: 66.7%; viability, T/C [20]: 29.3%; viability, T/C [29]: 2.36%; viability, T/C [21]: 81.9%; viability, T/C [22]: 74.3%; viability, T/C [23]: 63%; viability, T/C [24]: 62.4%; viability, T/C [25]: 11.8%; viability, T/C [30]: 0.25%
